The nature of test [1]: Kinetic thiol consumption assay with model thiol glutathione. Also on record: Rate constant with glutathione (k(GSH)): unit not given here. To be noted: for Rate constant with glutathione (k(GSH)): 500 μM ligand, 5 μM thiol, phosphate buffer pH 8; for Rate constant with Glutathione: Protein: Glutathione, cysteine position NA, in h-1. Type of test: physicochemical. Summed up:
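First, 5 μM glutathione in degassed phosphate buffer (pH 8) receives immobilized TCEP beads (2% v/v). Then acrylamide is added and plates incubate 1 h at room temperature. Finally, fluorescence (380/470 nm) is normalized and fitted to first-order decay for rate constants.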

Test [2] has as its target T1, human cyclin-dependent kinase 2 (Cdk2) (Homo sapiens, UniProt P24941).
T1 construct: poly-histidine; made in house; host or cells: E. coli
As to the kind of experiment: Kinetic thiol consumption assay with wild type Cdk2 (C177). Type of test: binding. Also on record: key to Rate enhancement, Cdk2 WT: k(Cdk2) divided by k(model thiol); Rate constant with Cdk2 (k(Cdk2)): unit not given here. To be noted: for Rate constant with Cdk2 (k(Cdk2)): 500 μM ligand, 5 μM thiol, phosphate buffer pH 8; for Rate enhancement, Cdk2 WT: no additional mutations; for Rate constant with Cdk2 WT: Protein: Cdk2, cysteine position WT, in h^-1; for k(Cdk2)/k(Cdk2_mut) rate enhancement: model thiol Cdk2[C177A, F80C, K278C]; for k(Cdk2)/k(GSH) rate enhancement: model thiol glutathione. Summed up:
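His-tagged human Cdk2 (single surface cysteine C177), expressed in E. coli, or a model thiol at 5 μM in degassed phosphate buffer pH 8 was pre-treated with immobilized TCEP beads (2% v/v) before acrylamide addition. Fluorescence (ex/em 380/470 nm) was read after 1 h at room temperature, normalized to DMSO/thiol-only control and plotted versus time.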

For another test, the target named is T2, Cdk2[C177A, F80C, K278C] (Homo sapiens, UniProt P24941, C177A/F80C/K278C).
T2 construct: poly-histidine; made in house; host or cells: E. coli
In words: Kinetic thiol consumption assay with mutant Cdk2 as model thiol. Type of test: binding. Also on record: unit not given here. To be noted: 500 μM ligand, 5 μM thiol, phosphate buffer pH 8. The method in brief:
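First-order rate constants were derived by exponential-decay fitting of DMSO/thiol-normalized fluorescence (380/470 nm) over time at room temperature. Thiol was 5 μM E. coli-expressed His-tagged Cdk2 mutant C177A/F80C/K278C in degassed pH 8 phosphate buffer containing 2% v/v TCEP beads.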

In a further test the target is T3, Cdk2(C177A, F80C) (Homo sapiens, UniProt P24941, C177A/F80C).
T3 construct: poly-histidine; made in house; host or cells: E. coli
In words: Kinetic thiol consumption assay with Cdk2 mutant F80C, incl. kobs versus concentration (Kd, k2). Type of test: binding. To be noted: additional mutation C177A; for Rate constant with Cdk2 F80C: Protein: Cdk2, cysteine position F80C, in h^-1. Also on record: key to Rate enhancement, Cdk2 F80C: Cdk2 rate constant divided by model-thiol rate constant. Summed up:
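His-tagged Cdk2(C177A/F80C) from E. coli or model thiol, 5 μM in degassed phosphate buffer pH 8 with TCEP beads, reacted with acrylamide ligands; fluorescence (ex/em 380/470 nm) normalized to DMSO control and fitted to first-order decay for kobs. Kd and k2 obtained from hyperbolic fit of kobs versus ligand concentration.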

Another test has as its target T4, Cdk2(H71C) (C177A) (Homo sapiens, UniProt P24941, C177A/H71C).
T4 construct: poly-histidine; made in house; host or cells: E. coli
In words: Kinetic thiol consumption assay with Cdk2 mutant H71C. Also on record: key to Rate enhancement, Cdk2 H71C: rate constant with Cdk2 ÷ rate constant with model thiol (fold). To be noted: additional mutation C177A; for Rate constant with Cdk2 H71C: Protein: Cdk2, cysteine position H71C, in h^-1. Type of test: binding. Summed up: (§1)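 Read-out is fluorescence at 380/470 nm, taken after 1 h at room temperature and normalized to a DMSO/thiol-only control over time. Thiol (5 μM Cdk2 mutant or model thiol) was in degassed pH 8 phosphate buffer with 2% v/v TCEP beads. Acrylamide rate constants for Cdk2 were divided by those with model thiol.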

For a further test, the target named is T5, Cdk2(S276C) (C177A) (Homo sapiens, UniProt P24941, C177A/S276C).
T5 construct: poly-histidine; made in house; host or cells: E. coli
As to the kind of experiment: Kinetic thiol consumption assay with Cdk2 mutant S276C. To be noted: additional mutation C177A; for Rate constant with Cdk2 S276C: Protein: Cdk2, cysteine position S276C, in h^-1. Type of test: binding. Also on record: key to Rate enhancement, Cdk2 S276C: rate constant with Cdk2 ÷ rate constant with model thiol (fold). Summed up:
as §1

A further test has as its target T6, Cdk2(N272C) (C177A) (Homo sapiens, UniProt P24941, C177A/N272C).
T6 construct: poly-histidine; made in house; host or cells: E. coli
In words: Kinetic thiol consumption assay with Cdk2 mutant N272C. Type of test: binding. Also on record: key to Rate enhancement, Cdk2 N272: rate constant with Cdk2 ÷ rate constant with model thiol (fold). As to conditions: for Rate enhancement, Cdk2 N272: Cdk2 N272, additional mutation C177A; for Rate constant with Cdk2 N272C: Protein: Cdk2, cysteine position N272C, additional mutation C177A, in h^-1. Summed up: as §1

In another test the target is T7, Cdk2(T182C) (C177A) (Homo sapiens, UniProt P24941, C177A/T182C).
T7 construct: poly-histidine; made in house; host or cells: E. coli
As to the kind of experiment: Kinetic thiol consumption assay with Cdk2 mutant T182C. Type of test: binding. Also on record: key to Rate enhancement, Cdk2 T182C: rate constant with Cdk2 ÷ rate constant with model thiol (fold). To be noted: additional mutation C177A; for Rate constant with Cdk2 T182C: Protein: Cdk2, cysteine position T182C, in h^-1. Summed up: as §1

For the next test, the target named is T8, Cdk2(R122C) (C177A) (Homo sapiens, UniProt P24941, C177A/R122C).
T8 construct: poly-histidine; made in house; host or cells: E. coli
In words: Kinetic thiol consumption assay with Cdk2 mutant R122C. Also on record: key to Rate enhancement, Cdk2 R122C: rate constant with Cdk2 ÷ rate constant with model thiol (fold). Type of test: binding. To be noted: additional mutation C177A; for Rate constant with Cdk2 R122C: Protein: Cdk2, cysteine position R122C, in h-1. Summed up:
as §1

The target in a further test is T9, Cdk2(S181C) (C177A) (Homo sapiens, UniProt P24941, C177A/S181C).
T9 construct: poly-histidine; made in house; host or cells: E. coli
In words: Kinetic thiol consumption assay with Cdk2 mutant S181C. Type of test: binding. Also on record: key to Rate enhancement, Cdk2 S181C: rate constant with Cdk2 ÷ rate constant with model thiol (fold). To be noted: additional mutation C177A; for Rate constant with Cdk2 S181C: Protein: Cdk2, cysteine position S181C, in h^-1. Summed up:
as §1

The values below come from US11415579B2, “Assay for measuring a rate of reaction between a target and a ligand candidate” (Imperial College Innovations Ltd., priority 2016, dated 2022).

Regarding `C=CC(=O)Nc1ccccc1-c1ccccc1` [EL-1012], in test [1], the “Rate constant with glutathione (k(GSH))” value amounted to 0.00837 and the “Rate constant with Glutathione” value is given as 0.008054. In test [2], the “Rate constant with Cdk2 (k(Cdk2))” value is given as 0.00519; the “Rate enhancement, Cdk2 WT” value worked out at 0.6362; the “Rate constant with Cdk2 WT” value was determined as 0.005124; the “k(Cdk2)/k(Cdk2_mut) rate enhancement” value is recorded as 0.1479. Further, in test [2], the “k(Cdk2)/k(GSH) rate enhancement” value is given as 0.6204. Also, the “Rate constant with Cdk2[C177A, F80C, K278C] (k(Cdk2_mut))” value (from here on “Rate constant … (k(Cdk2_mut))”) at Cdk2[C177A, F80C, K278C] turned out to be 0.03512. Moreover, at Cdk2(C177A, F80C), the “Rate enhancement, Cdk2 F80C” value is 1.711 and the “Rate constant with Cdk2 F80C” value came out at 0.01378. Also, on Cdk2(H71C) (C177A), the “Rate enhancement, Cdk2 H71C” value amounted to 0.3662 and the “Rate constant with Cdk2 H71C” value turned out to be 0.002949. Moreover, at Cdk2(S276C) (C177A), the “Rate enhancement, Cdk2 S276C” value worked out at 0.2841 and the “Rate constant with Cdk2 S276C” value came to 0.002288. For the same compound, at Cdk2(N272C) (C177A), the “Rate enhancement, Cdk2 N272” value is 0. In addition, at Cdk2(T182C) (C177A), the “Rate enhancement, Cdk2 T182C” value is recorded as 2.136 and the “Rate constant with Cdk2 T182C” value amounted to 0.0172. On Cdk2(R122C) (C177A), the “Rate enhancement, Cdk2 R122C” value was 0.6595 and the “Rate constant with Cdk2 R122C” value was found to be 0.005312. Further, on Cdk2(S181C) (C177A), the “Rate enhancement, Cdk2 S181C” value was 0.7584 and the “Rate constant with Cdk2 S181C” value is listed as 0.006108.
For `C=CC(=O)N1CCCC2(CCCc3ccccc32)C1` (centres unmarked) [CA-084], in [1], the “Rate constant with glutathione (k(GSH))” value is 0.01002 and the “Rate constant with Glutathione” value is listed as 0.01681. In test [2], the “Rate constant with Cdk2 (k(Cdk2))” value was 0.00872; the “Rate enhancement, Cdk2 WT” value is 0.5186; the “Rate constant with Cdk2 WT” value worked out at 0.008718; the “k(Cdk2)/k(Cdk2_mut) rate enhancement” value is on record as 1.989. Moreover, in test [2], the “k(Cdk2)/k(GSH) rate enhancement” value is recorded as 0.8701. Moreover, on Cdk2[C177A, F80C, K278C], the “Rate constant … (k(Cdk2_mut))” value was determined as 0.00438. In addition, on Cdk2(C177A, F80C), the “Rate enhancement, Cdk2 F80C” value was determined as 1.811 and the “Rate constant with Cdk2 F80C” value worked out at 0.03044. In addition, on Cdk2(H71C) (C177A), the “Rate enhancement, Cdk2 H71C” value stood at 0.8209 and the “Rate constant with Cdk2 H71C” value is listed as 0.0138. In addition, on Cdk2(S276C) (C177A), the “Rate enhancement, Cdk2 S276C” value was 1.079 and the “Rate constant with Cdk2 S276C” value is reported as 0.01813. Moreover, on Cdk2(N272C) (C177A), the “Rate enhancement, Cdk2 N272” value is on record as 0.06817 and the “Rate constant with Cdk2 N272C” value is reported as 0.001146. Besides, on Cdk2(T182C) (C177A), the “Rate enhancement, Cdk2 T182C” value is given as 3.848 and the “Rate constant with Cdk2 T182C” value is 0.06469. For the same compound, on Cdk2(R122C) (C177A), the “Rate enhancement, Cdk2 R122C” value is 0.2694 and the “Rate constant with Cdk2 R122C” value came to 0.004528. Further, on Cdk2(S181C) (C177A), the “Rate enhancement, Cdk2 S181C” value amounted to 0.4258 and the “Rate constant with Cdk2 S181C” value was determined as 0.007158.
With `C=CC(=O)NCCNC(=O)c1ccccc1` [CA216], in test [1], the “Rate constant with glutathione (k(GSH))” value came out at 0.00254 and the “Rate constant with Glutathione” value turned out to be 0.004286. In [2], the “Rate constant with Cdk2 (k(Cdk2))” value amounted to 0.00676; the “Rate enhancement, Cdk2 WT” value came out at 3.777; the “Rate constant with Cdk2 WT” value is 0.01619; the “k(Cdk2)/k(Cdk2_mut) rate enhancement” value came to 0.356. Moreover, in [2], the “k(Cdk2)/k(GSH) rate enhancement” value amounted to 2.66. Besides, the “Rate constant … (k(Cdk2_mut))” value at Cdk2[C177A, F80C, K278C] is given as 0.01899. Moreover, at Cdk2(C177A, F80C), the “Rate enhancement, Cdk2 F80C” value was found to be 18.66 and the “Rate constant with Cdk2 F80C” value is given as 0.07999. At Cdk2(H71C) (C177A), the “Rate enhancement, Cdk2 H71C” value came out at 1.033 and the “Rate constant with Cdk2 H71C” value is recorded as 0.004427. At Cdk2(S276C) (C177A), the “Rate enhancement, Cdk2 S276C” value was 1.648 and the “Rate constant with Cdk2 S276C” value worked out at 0.007064. Besides, on Cdk2(N272C) (C177A), the “Rate enhancement, Cdk2 N272” value came out at 2.921 and the “Rate constant with Cdk2 N272C” value is on record as 0.01252. Moreover, on Cdk2(T182C) (C177A), the “Rate enhancement, Cdk2 T182C” value was determined as 59.66 and the “Rate constant with Cdk2 T182C” value stood at 0.2557. Besides, at Cdk2(R122C) (C177A), the “Rate enhancement, Cdk2 R122C” value amounted to 0.4256 and the “Rate constant with Cdk2 R122C” value is given as 0.001824. Also, on Cdk2(S181C) (C177A), the “Rate enhancement, Cdk2 S181C” value came out at 0.8854 and the “Rate constant with Cdk2 S181C” value worked out at 0.003795.
